As usually defined, the inhibition is the share of the control response that was lost under treatment. As a reminder, the ΔTm is the shift of the melting midpoint relative to a reference.

The target in test [1] is PRMT6 (Homo sapiens, UniProt Q96LA8). In words: selectivity of YD1113/YD1290 on PRMT panel, PRMT6. As to conditions: 10 μM; PRMT panel. Type of test: biochemical. How it is done:
The selectivity of compounds YD1113 and YD1290 on PRMTs were performed by Reaction Biology Corp.
Next, the selectivity of YD1113 was investigated on a panel of PRMTs at 10 μM.
After validating the benzyl urea moiety as an unconventional homocysteine mimic of SAH for PRMTs, it was hypothesized that incorporating the benzyl urea moiety into the original pan PRMT inhibitor II757 would build a potent bisubstrate inhibitor. […] To enable a stable tri-substitution, the sulfur atom with a nitrogen atom was replaced. YD1290 was synthesized following the reported methods 9, 15 and tested in a radioactivity assay for PRMTs (FIG. 6b).

The target of test [2] is T1, PRMT4 (Homo sapiens, UniProt Q86X55).
T1 construct: PRMT4 (residues 140-480) was cloned into the pFBOH-MHL vector; tag of the pFBOH-MHL vector (poly-His implied by Ni-NTA purification; not described); made in house; host or cells: Sf9 insect cells
In words: thermal shift assay PRMT4. Type of test: binding. As to conditions: 100 μM compound, 20 μM protein. As for the experimental part: (§1) The fluorescence-based thermal shift assay was performed using a StepOne plus qPCR instrument (Thermal Fisher). For PRMT1, 10 μM of protein was mixed with 2× sypro orange and DMSO, or 100 μM SAM, or 100 μM YD1113, or 100 μM YD1290 in a buffer consisting of 2.5 mM HEPES (pH=7.0), 25 mM NaCl, 25 μM EDTA, 50 μM TCEP, 0.01% Triton X-100. For PRMT3, 20 μM of protein was mixed with 2× sypro orange and DMSO, or 100 μM SAM, or 100 μM YD1113, or 100 μM YD1290 in a buffer consisting of 20 mM Tris (pH=7.5), 0.01% Triton X-100. For PRMT4, 20 μM of protein was mixed with 2× sypro orange and DMSO, or 100 μM SAM, or 100 μM YD1113, or 100 μM YD1290 in a buffer consisting of 20 mM bicine (pH=8.5), 0.01% Triton X-100. All samples were heated from 25° C. to 75° C. at an increased rate of 0.5° C. per minute. Protein denaturation was monitored by the increased fluorescence signal of Sypro Orange, which captures exposed hydrophobic residues during thermal unfolding. The recorded curves were analyzed by the software StepOne plus and plotted in GraphPad Prism 8 software.
(§2) Next, the thermal shift assay (TSA) was conducted as an orthogonal method to examine the effects of YD1290 on the thermal stability of PRMT1, 3, and 4 (Figure S1).

Test [3] has as its target PRMT3 (Homo sapiens, UniProt O60678). In words: thermal shift assay PRMT3. Type of test: binding. Also noted: PRMT3 (residues 211-531) was cloned into the pET28a-MHL expression vector; tag of the pET28a-MHL vector (not described); made in house; host or cells: Escherichia coli BL21(DE3). Particulars: 100 μM compound, 20 μM protein. How it is done: as §1, §2

Each structure is given as a SMILES string.

Sequence of PRMT3 (O60678 211-531): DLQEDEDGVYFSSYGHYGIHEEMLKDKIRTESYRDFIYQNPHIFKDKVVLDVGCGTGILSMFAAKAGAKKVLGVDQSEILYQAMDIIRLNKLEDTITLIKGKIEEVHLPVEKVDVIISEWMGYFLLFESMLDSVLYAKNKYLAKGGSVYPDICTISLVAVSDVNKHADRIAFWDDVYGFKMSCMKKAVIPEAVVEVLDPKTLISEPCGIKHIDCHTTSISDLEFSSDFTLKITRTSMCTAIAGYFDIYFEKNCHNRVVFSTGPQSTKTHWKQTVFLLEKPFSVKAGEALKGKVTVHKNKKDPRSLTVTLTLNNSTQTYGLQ
T1 sequence (Q86X55 140-480): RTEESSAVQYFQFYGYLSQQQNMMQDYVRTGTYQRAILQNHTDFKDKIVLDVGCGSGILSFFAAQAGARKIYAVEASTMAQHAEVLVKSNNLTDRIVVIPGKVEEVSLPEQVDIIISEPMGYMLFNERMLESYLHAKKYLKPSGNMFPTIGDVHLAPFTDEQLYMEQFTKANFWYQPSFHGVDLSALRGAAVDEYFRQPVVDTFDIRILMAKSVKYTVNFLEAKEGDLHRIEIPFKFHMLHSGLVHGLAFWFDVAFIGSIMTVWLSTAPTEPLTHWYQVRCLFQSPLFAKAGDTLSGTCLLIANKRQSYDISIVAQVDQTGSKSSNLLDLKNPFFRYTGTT
Sequence of PRMT6 (Q96LA8 whole entry, species assumed): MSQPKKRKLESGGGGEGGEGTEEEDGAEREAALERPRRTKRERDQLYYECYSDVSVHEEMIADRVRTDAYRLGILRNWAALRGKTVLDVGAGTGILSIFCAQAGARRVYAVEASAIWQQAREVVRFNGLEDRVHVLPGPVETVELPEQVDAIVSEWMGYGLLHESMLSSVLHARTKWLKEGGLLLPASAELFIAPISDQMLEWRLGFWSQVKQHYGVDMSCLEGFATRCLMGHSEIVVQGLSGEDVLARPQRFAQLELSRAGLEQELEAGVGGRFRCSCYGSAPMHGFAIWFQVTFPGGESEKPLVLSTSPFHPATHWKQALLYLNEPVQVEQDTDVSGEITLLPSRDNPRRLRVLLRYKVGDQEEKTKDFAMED

In test [1], `Nc1ncnc2c1ncn2[C@@H]1O[C@H](CSCCNC(=O)NCc2ccccc2)[C@@H](O)[C@H]1O` [Compound 7a, 1-(2-((((2S,3S,4R,5R)-5-(6-amino-9H-purin-9-yl)-3,4-dihydroxytetrahydrofuran-2-yl)methyl)thio)ethyl)-3-benzylurea] showed an inhibition at 10 µM of under 35%. The ΔTm at 100 µM is 2.6 °C in test [2] and 5.8 °C in test [3].

Values taken from patent US20260306527A1, “PRMT INHIBITOR COMPOUNDS AND THE USES THEREOF” (Purdue Research Foundation, priority 2023, published 2026).
